target: T1, recombinant ASK1 (Homo sapiens, UniProt Q99683); test: ASK1 Biochemical Assay (HTRF KinEASE-STK S3); settings: ATP 100 μM; read-out: Biochemical Assay IC50
T1 construct: purchased Carna Biosciences
Procedure: ASK1 biochemical assay was standardized using recombinant ASK1 (Carna Biosciences), substrate and detection reagents from Cisbio HRTF KinEASE-STK S3 kit. Enzyme concentration, ATP, biotinylated STK substrate and STK antibodies were titrated for enzyme assay. Assay was carried out in ASK1 kinase buffer, 10 mM MOPS pH-7, 10 mM Mg-acetate, 1 mM DTT, 0.025% NP40, 1.5% glycerol and 0.05% BSA. DMSO was used as vehicle control with a final concentration of 1%. A 5 ng of ASK1 enzyme was incubated with compound for 1 hour at 23° C. on a shaker at 100rpm. ATP and biotin substrate was added at a final concentration of 100 μM and 1 μM and incubated for 3 hours at 23° C. on a shaker at 100rpm. […] Delta F ratios were calculated from data obtained at excitation (337 nm) and emission wavelengths (665 nm and 620-10 nm). Substrate blank values was considered as negative control. Values from negative control was substrated from vehicle control and compound treated wells. Enzyme inhibition by compounds were calculated from vehicle controls, which represent uninterrupted enzyme's activity.

T1 sequence (Q99683 654-971 limits assumed): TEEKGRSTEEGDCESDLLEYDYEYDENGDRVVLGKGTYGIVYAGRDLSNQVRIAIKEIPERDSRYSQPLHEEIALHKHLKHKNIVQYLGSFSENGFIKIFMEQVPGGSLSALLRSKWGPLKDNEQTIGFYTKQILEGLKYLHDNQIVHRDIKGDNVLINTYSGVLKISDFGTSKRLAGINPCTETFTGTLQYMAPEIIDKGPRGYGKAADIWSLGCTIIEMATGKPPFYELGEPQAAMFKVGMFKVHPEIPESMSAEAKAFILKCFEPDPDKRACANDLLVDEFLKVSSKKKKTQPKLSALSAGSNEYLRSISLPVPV

Row | Structure (SMILES) | IC50
1 | CC(C)n1cnnc1-c1cccc(N2CCN(c3cc(-n4ccnc4)ncn3)C2=O)n1 [Example 1001, 1-(6-(1H-imidazol-1-yl)pyrimidin-4-yl)-3-(6-(4-isopropyl-4H-1,2,4-triazol-3-yl)pyridin-2-yl)imidazolidin-2-one] | 1300 nM
2 | CC(C)n1cnnc1-c1cccc(N2CCN(c3cc(-n4ccnc4)ccn3)C2=O)n1 [Example 1003, 1-(4-(1H-imidazol-1-yl)pyridin-2-yl)-3-(6-(4-isopropyl-4H-1,2,4-triazol-3-yl)pyridin-2-yl)imidazolidin-2-one] | > 1000 nM
3 | CC(C)n1cnnc1-c1cccc(-n2ccn(-c3cc(-n4ccnc4)ncn3)c2=O)n1 [Example 1004, 1-(6-(1H-imidazol-1-yl)pyrimidin-4-yl)-3-(6-(4-isopropyl-4H-1,2,4-triazol-3-yl)pyridin-2-yl)-1H-imidazol-2(3H)-one] | > 1000 nM
4 | CC(C)n1cnnc1-c1cccc(N2CCN(c3cccc(-n4cnc(C5CC5)c4)c3)C2=O)n1 [Example 1005, 1-(3-(4-cyclopropyl-1H-imidazol-1-yl)phenyl)-3-(6-(4-isopropyl-4H-1,2,4-triazol-3-yl)pyridin-2-yl)imidazolidin-2-one] | < 1000 nM
5 | CC(C)n1cnnc1-c1cccc(-n2ccn(-c3cccc(-n4ccnc4)c3)c2=O)n1 [Example 1006, 1-(3-(1H-imidazol-1-yl)phenyl)-3-(6-(4-isopropyl-4H-1,2,4-triazol-3-yl)pyridin-2-yl)-1H-imidazol-2(3H)-one] | < 1000 nM
6 | CC(C)n1cnnc1-c1cccc(N2CCN(c3cccc(-n4ccnc4)c3F)C2=O)n1 [Example 1008, 1-(2-fluoro-3-(1H-imidazol-1-yl)phenyl)-3-(6-(4-isopropyl-4H-1,2,4-triazol-3-yl)pyridin-2-yl)imidazolidin-2-one] | > 1000 nM
7 | CC(C)n1cnnc1-c1cccc(N2CCN(c3cccc(S(C)(=O)=O)c3)C2=O)n1 [Example 1009, 1-(6-(4-isopropyl-4H-1,2,4-triazol-3-yl)pyridin-2-yl)-3-(3-(methylsulfonyl)phenyl)imidazolidin-2-one] | 95 nM
8 | CC(C)n1cnnc1-c1cccc(N2CCN(c3cccc(-c4cnn(C)c4)c3)C2=O)n1 [Example 1012, 1-(6-(4-isopropyl-4H-1,2,4-triazol-3-yl)pyridin-2-yl)-3-(3-(1-methyl-1H-pyrazol-4-yl)phenyl)imidazolidin-2-one] | < 1000 nM
9 | CC(C)n1cnnc1-c1cccc(N2CCN(c3cccc(-c4ccc(C(N)=O)cc4)c3)C2=O)n1 [Example 1015, 3′-(3-(6-(4-isopropyl-4H-1,2,4-triazol-3-yl)pyridin-2-yl)-2-oxoimidazolidin-1-yl)-[1,1′-biphenyl]-4-carboxamide] | > 1000 nM
10 | CC(C)n1cnnc1-c1cccc(N2CCN(c3cccc(-c4ccc(C#N)cc4)c3)C2=O)n1 [Example 1016, 3′-(3-(6-(4-isopropyl-4H-1,2,4-triazol-3-yl)pyridin-2-yl)-2-oxoimidazolidin-1-yl)-[1,1′-biphenyl]-4-carbonitrile] | > 1000 nM
11 | CC(C)n1cnnc1-c1cccc(N2CCN(c3cccc(-c4ccc(C(F)(F)F)cc4)c3)C2=O)n1 [Example 1017, 1-(6-(4-isopropyl-4H-1,2,4-triazol-3-yl)pyridin-2-yl)-3-(4′-(trifluoromethyl)-[1,1′-biphenyl]-3-yl)imidazolidin-2-one] | > 1000 nM
12 | COc1cc(C)c(-c2ccc(S(C)(=O)=O)cc2)cc1N1CCN(c2cccc(-c3nncn3C(C)C)n2)C1=O [Example 1026, 1-(6-(4-isopropyl-4H-1,2,4-triazol-3-yl)pyridin-2-yl)-3-(4-methoxy-6-methyl-4′-(methylsulfonyl)-[1,1′-biphenyl]-3-yl)imidazolidin-2-one] | > 100 nM
13 | CC(C)n1cnnc1-c1cccc(N2CCN(S(C)(=O)=O)C2=O)n1 [Example 1028, 1-(6-(4-isopropyl-4H-1,2,4-triazol-3-yl)pyridin-2-yl)-3-(methylsulfonyl)imidazolidin-2-one] | > 1000 nM
14 | CC(C)n1cnnc1-c1cccc(N2CCN(c3ccc(O)cc3)C2=O)n1 [Example 1030, 1-(4-hydroxyphenyl)-3-(6-(4-isopropyl-4H-1,2,4-triazol-3-yl)pyridin-2-yl)imidazolidin-2-one] | > 1000 nM
15 | COc1cc(C)c(S(C)(=O)=O)cc1N1CCN(c2cccc(-c3nncn3C(C)C)n2)C1=O [Example 1031, 1-(6-(4-isopropyl-4H-1,2,4-triazol-3-yl)pyridin-2-yl)-3-(2-methoxy-4-methyl-5-(methylsulfonyl)phenyl)imidazolidin-2-one] | > 1000 nM
16 | CC(C)n1cnnc1-c1cccc(N2CCN(c3ccc(C(F)(F)F)cc3)C2=O)n1 [Example 1033, 1-(4-(trifluoromethyl)phenyl)-3-(6-(4-isopropyl-4H-1,2,4-triazol-3-yl)pyridin-2-yl)imidazolidin-2-one] | > 100 nM

Row | Structure (SMILES) | IC50
17 | Cc1cc(S(C)(=O)=O)ccc1N1CCN(c2cccc(-c3nncn3C(C)C)n2)C1=O [Example 1042, 1-(6-(4-isopropyl-4H-1,2,4-triazol-3-yl)pyridin-2-yl)-3-(2-methyl-4-(methylsulfonyl)phenyl)imidazolidin-2-one] | > 100 nM
18 | CC(C)n1cnnc1-c1cccc(N2CCN(c3ccc4nc(NC5CC5)sc4c3)C2=O)n1 [Example 1046, N-cyclopropyl-6-(3-(6-(4-isopropyl-4H-1,2,4-triazol-3-yl)pyridin-2-yl)-2-oxoimidazolidin-1-yl)benzo[d]thiazol-2-aminium 2,2,2-trifluoroacetate] | > 100 nM
19 | CC(C)n1cnnc1-c1cccc(N2CCN(c3ccc(S(C)(=O)=O)c(N4CCCC4)c3)C2=O)n1 [Example 1058, 1-(6-(4-isopropyl-4H-1,2,4-triazol-3-yl)pyridin-2-yl)-3-(4-(methylsulfonyl)-3-(pyrrolidin-1-yl)phenyl)imidazolidin-2-one] | > 100 nM
20 | CC(C)n1cnnc1-c1cccc(N2CCN(c3ccc(F)c(C4CC4)c3)C2=O)n1 [Example 1060, 1-(3-cyclopropyl-4-fluorophenyl)-3-(6-(4-isopropyl-4H-1,2,4-triazol-3-yl)pyridin-2-yl)imidazolidin-2-one] | < 100 nM
21 | CC(C)c1cc(N2CCN(c3cccc(-c4nncn4C(C)C)n3)C2=O)ccc1S(C)(=O)=O [Example 1062, 1-(3-isopropyl-4-(methylsulfonyl)phenyl)-3-(6-(4-isopropyl-4H-1,2,4-triazol-3-yl)pyridin-2-yl)imidazolidin-2-one] | > 1000 nM
22 | CC(C)n1cnnc1-c1ccc(N2CCN(c3ccc(S(C)(=O)=O)cc3)C2=O)nc1 [Example 1064, 1-(5-(4-isopropyl-4H-1,2,4-triazol-3-yl)pyridin-2-yl)-3-(4-(methylsulfonyl)phenyl)imidazolidin-2-one] | > 100 nM
23 | CC(C)n1cnnc1-c1cccc(N2CCN(c3ccc(S(C)(=O)=O)cc3)C2=O)n1 [Example 1065, 1-(6-(4-isopropyl-4H-1,2,4-triazol-3-yl)pyridin-2-yl)-3-(4-(methylsulfonyl)phenyl)imidazolidin-2-one] | > 1000 nM
24 | CC(C)n1cnnc1-c1cccc(N2CCN(c3ccc(N4CCC(C)(C)CC4)cc3)C2=O)n1 [Example 1070, 1-(6-(4-isopropyl-4H-1,2,4-triazol-3-yl)pyridin-2-yl)-3-(4-(4,4-dimethylpiperidin-1-yl)phenyl)imidazolidin-2-one] | < 100 nM
25 | CC(C)n1cnnc1-c1cccc(N2CCN(c3ccc(N4CCC(O)CC4)nc3)C2=O)n1 [Example 1072, 1-(6-(4-hydroxypiperidin-1-yl)pyridin-3-yl)-3-(6-(4-isopropyl-4H-1,2,4-triazol-3-yl)pyridin-2-yl)imidazolidin-2-one] | > 100 nM
26 | Cc1cc(N2CCN(c3cccc(-c4nncn4C(C)C)n3)C2=O)ccc1N1CCOCC1 [Example 1079, 1-(6-(4-isopropyl-4H-1,2,4-triazol-3-yl)pyridin-2-yl)-3-(3-methyl-4-morpholinophenyl)imidazolidin-2-one] | < 100 nM
27 | CC(C)n1cnnc1-c1cccc(N2CCN(c3ccc(N4[C@H](C)COC[C@H]4C)cc3)C2=O)n1 [Example 1086, 1-(6-(4-isopropyl-4H-1,2,4-triazol-3-yl)pyridin-2-yl)-3-(4-((3R,5R)-3,5-dimethylmorpholino)phenyl)imidazolidin-2-one] | < 100 nM
28 | CC(C)n1cnnc1-c1cccc(N2CCN(c3ccc(N4CC(O)(C(C)C)C4)cc3)C2=O)n1 [Example 1089, 1-(4-(3-hydroxy-3-isopropylazetidin-1-yl)phenyl)-3-(6-(4-isopropyl-4H-1,2,4-triazol-3-yl)pyridin-2-yl)imidazolidin-2-one] | < 100 nM
29 | CC(C)n1cnnc1-c1cccc(N2CCN(C)C2=O)n1 [Example 1099, 1-(6-(4-isopropyl-4H-1,2,4-triazol-3-yl)pyridin-2-yl)-3-methylimidazolidin-2-one] | < 100 nM
30 | CC(C)n1cnnc1-c1cccc(N2CCN(c3ccc(N4CCCC4)cc3)C2=O)n1 [Example 1100, 1-(6-(4-isopropyl-4H-1,2,4-triazol-3-yl)pyridin-2-yl)-3-(4-(pyrrolidin-1-yl)phenyl)imidazolidin-2-one] | < 100 nM
31 | CC(C)n1cnnc1-c1cccc(N2CCN(c3cnc(S(C)(=O)=O)nc3)C2=O)n1 [Example 1102, 1-(6-(4-isopropyl-4H-1,2,4-triazol-3-yl)pyridin-2-yl)-3-(2-(methylsulfonyl)pyrimidin-5-yl)imidazolidin-2-one] | < 100 nM
32 | CC(c1ccc(N2CCOCC2)cc1)N1CCN(c2cccc(-c3nncn3C(C)C)n2)C1=O (centres unmarked) [Example 1111, 1-(6-(4-isopropyl-4H-1,2,4-triazol-3-yl)pyridin-2-yl)-3-(1-(4-morpholinophenyl)ethyl)imidazolidin-2-one] | < 100 nM
